Consider three compounds from patent US20230210833A1, “USE OF IRAK4 INHIBITOR IN TREATMENT OF ACUTE LUNG INJURY ALI/ARDS” (SHANGHAI LEADINGTAC PHARMACEUTICAL CO., LTD., priority 2020, published 2023).

Common to all, as to assay type: in vivo, Balb/c mice
The test system of experiment [1] is LPS-induced ALI/ARDS model mice. In words: Lung pathology score (HE staining) in LPS-induced ALI/ARDS mice. Conditions: left lung HE staining, 24 hours after LPS; four categories each scored 0 to 4.
Protocol: LPS induced model was given again after 6 hours, and the dose was the same as that of the first administration. […] The mice were euthanized with excess carbon dioxide. After the maximum blood volume was collected from the heart, the left lung was fixed with neutral formaldehyde and embedded in paraffin, sliced and HE staining, photographed to observe the lung injury and score.
Lung pathology scoring criteria: (1) alveolar congestion; (2) hemorrhage; (3) neutrophil infiltration into airspace or vascular wall; (4) alveolar wall/thickness formed by hyaline membrane.
A short description of experiment [2]: Body weight of LPS-induced ALI/ARDS mice. To be noted: oral dosing 0.5 h before and 6 hours after LPS (146 150 mg/kg, 41 75 mg/kg, 450 100 mg/kg, dexamethasone 10 mg/kg); 24 hours after LPS; Mean±SEM.
Protocol: (§1) LPS induced model was given again after 6 hours, and the dose was the same as that of the first administration. After 24 hours from LPS induced model, all mice were weighed, the animals used were anesthetized and the alveolar lavage fluid was collected, the lower cell pellets were collected after centrifugation, and the cells were resuspended, fixed with methanol and stained with Wright-Giemsa, and the eosinophils, neutrophils, macrophages and lymphocytes were counted by an optical microscope. The mice were euthanized with excess carbon dioxide. After the maximum blood volume was collected from the heart, the left lung was fixed with neutral formaldehyde and embedded in paraffin, sliced and HE staining, photographed to observe the lung injury and score.
The next experiment concerns TNF-α. In words: TNF-α in alveolar lavage fluid of LPS-induced ALI/ARDS mice (Elisa). To be noted: for Inhibition of TNF-α (%): oral single dose 0.5 h before LPS (146 150 mg/kg, 41 75 mg/kg, 450 100 mg/kg, dexamethasone 10 mg/kg), alveolar lavage fluid supernatant 4 hours after LPS.
The subject of a further experiment is IL-1β. Nature of the experiment: IL-1β in alveolar lavage fluid of LPS-induced ALI/ARDS mice (Elisa). To be noted: for Inhibition of IL-1β (%): oral single dose 0.5 h before LPS (146 150 mg/kg, 41 75 mg/kg, 450 100 mg/kg, dexamethasone 10 mg/kg), alveolar lavage fluid supernatant 4 hours after LPS.
The test system of a further experiment is IL-6. Nature of the experiment: IL-6 in alveolar lavage fluid of LPS-induced ALI/ARDS mice (Elisa). To be noted: for Inhibition of IL-6 (%): oral single dose 0.5 h before LPS (146 150 mg/kg, 41 75 mg/kg, 450 100 mg/kg, dexamethasone 10 mg/kg), alveolar lavage fluid supernatant 4 hours after LPS.
The subject of experiment [3] is LPS-induced ALI/ARDS model mice. In words: Cell count of alveolar lavage fluid in LPS-induced ALI/ARDS mice. Conditions: 24 hours after LPS, oral dosing 0.5 h before and 6 hours after LPS.
Protocol: as §1
The mark [4] stands for this setting: after acting for 4 hours, comparison between compounds 146, 450, 41 and model group.

Protocol for IL-1β: (§2) After LPS induced model for 4 hours, all mice were anesthetized and alveolar lavage fluid was collected, and the supernatant was collected by centrifuging alveolar lavage fluid. The levels of TNF-α, IL-6 and IL-1β in the supernatant were detected by enzyme-linked immunosorbent assay (Elisa).
Protocol for IL-6: as §2
Protocol for TNF-α: as §2

As to `Cc1cc(-c2nc(C(=O)Nc3cc4oc(N5CCOCC5)nc4nc3N3CC[C@@H](O)C3)co2)ccn1` [Compound 41, (R)-N-(5-(3-hydroxypyrrolidine-1-yl)-2-morpholinoxazo [4,5-b]pyridine-6-yl)-2-(2-methylpyridine-4-yl) oxazole-4-formamide], the Pulmonary pathology score in experiment [1] is on record as 4.17. For the same compound, the “Weight” value in experiment [2] is on record as 19.45 ± 0.71 g. Besides, in the experiment on TNF-α, the “Inhibition of TNF-α (%)” value was determined as 12.90%. Further, the “Inhibition of IL-1β (%)” value in the experiment on IL-1β came out at 52.00%. Further, in the experiment with IL-6, the “Inhibition of IL-6 (%)” value amounted to 21.40%. In experiment [3], the “Eosinophils (*10^4)” value is on record as 2.81 *10^4, the “Lymphocytes (*10^4)” value is listed as 3.71 *10^4, the “Macrophages (*10^4)” value was 89.06 *10^4 and the “Neutrophils (*10^4)” value was 466.17 *10^4. The “Total cell count (*10^4)” value in experiment [3] was 561.75 *10^4.
Regarding `CC[C@@H]1[C@H](F)C(=O)N[C@@H]1COc1nccc2cc(C(N)=O)c(OC)cc12` [Compound 450], in experiment [1], the Pulmonary pathology score came to 4.83. Further, in experiment [2], the “Weight” value came out at 18.68 ± 0.4 g. Also, the “TNF-α inhibitory effect (in words)” value with TNF-α (setting [4]) is “significantly lower than that of compound 146”. Besides, in the experiment with TNF-α, the “Inhibition of TNF-α (%)” value is recorded as 28.70%. Besides, the “IL-1β inhibitory effect (in words)” value in the experiment with IL-1β (setting [4]) is on record as “significantly lower than that of compound 146”. Moreover, the “Inhibition of IL-1β (%)” value in the experiment on IL-1β came out at 43.90%. In addition, the “IL-6 inhibitory effect (in words)” value in the experiment on IL-6 (setting [4]) is “significantly lower than that of compound 146”. The “Inhibition of IL-6 (%)” value with IL-6 was 36.40%. Besides, in experiment [3], the “Eosinophils (*10^4)” value is 3.11 *10^4, the “Lymphocytes (*10^4)” value is listed as 2.74 *10^4, the “Macrophages (*10^4)” value was 74.91 *10^4 and the “Neutrophils (*10^4)” value is listed as 386.74 *10^4. For the same compound, in experiment [3], the “Total cell count (*10^4)” value is reported as 467.50 *10^4.
`C[C@@H]1C[C@H]2[C@@H]3CCC4=CC(=O)C=C[C@]4(C)[C@@]3(F)[C@@H](O)C[C@]2(C)[C@@]1(O)C(=O)CO` [Dexamethasone, dexamethasone] gave a Pulmonary pathology score in experiment [1] of 3.50. For the same compound, the “Weight” value in experiment [2] amounted to 18.91 ± 0.74 g. The “Inhibition of TNF-α (%)” value with TNF-α was determined as 128.70%. The “Inhibition of IL-1β (%)” value with IL-1β is 0.00%. The “Inhibition of IL-6 (%)” value in the experiment on IL-6 was 0.00%. In experiment [3], the “Eosinophils (*10^4)” value is listed as 3.17 *10^4, the “Lymphocytes (*10^4)” value is on record as 3.25 *10^4, the “Macrophages (*10^4)” value was 108.20 *10^4 and the “Neutrophils (*10^4)” value is 361.63 *10^4. For the same compound, in experiment [3], the “Total cell count (*10^4)” value was 476.25 *10^4.
